The values below come from article PMC4503722, “Novel Phenotypic Outcomes Identified for a Public Collection of Approved Drugs from a Publicly Accessible Panel of Assays” (PLoS ONE, 2015).

Like-named read-outs stand apart in the source and are kept apart here.

Among the test systems are DLD-1; RKO; SNU-C1; HeLa cells; HCT116; Colo320; SW480; HT-29.
Common to all, as to experiment: cells
What all share (format): cell-based

For assay [1], the system named is HCT116 cells treated with a GSK3β inhibitor.
Setting [2] is: assay number 26, GSK3b inhibitor pretreated.

For the compound `CC[C@H]1CN2CCc3cc(OC)c(OC)cc3[C@@H]2C[C@@H]1C[C@H]1NCCc2cc(OC)c(OC)cc21` [NCGC00024379-16], in the assay on DLD-1 (assay number 23, basal), the “Basal_Viability ATP DLD-1 IC50/EC50” value came to 0.01158 µM. Moreover, the “Basal_Viability ATP RKO IC50/EC50” value in the assay with RKO (assay number 29, basal) is 0.00831 µM. The “Basal_Viability ATP SNU-C1 IC50/EC50” value with SNU-C1 (assay number 30, basal) is 0.00228 µM. Also, the “GSK3b inh pretreated_Viability ATP HCT116 IC50/EC50” value in assay [1] (setting [2]) turned out to be 0.001 µM. The “Hela CellCycMod PI 2N IC50/EC50” value in the assay on HeLa cells (assay number 14, 2N) is greater than 10 µM. Moreover, in the assay with HeLa cells (assay number 16, 4N), the “Hela CellCycMod PI 4N IC50/EC50” value is greater than 10 µM. For the same compound, in the assay on HeLa cells (assay number 17, MI), the “Hela CellCycMod PI MI IC50/EC50” value was 0.9477 µM. Moreover, the “Hela CellCycMod PI Cell Number IC50/EC50” value in the assay with HeLa cells (assay number 18, cell number) was found to be 0.03266 µM. Further, the “Basal_Viability ATP HCT116 IC50/EC50” value with HCT116 (assay number 25, basal) came out at 0.06147 µM. Besides, in the assay on Colo320 (assay number 27, basal), the “Basal_Viability ATP Colo 320 IC50/EC50” value was found to be 0.0221 µM. In addition, in the assay with SW480 (assay number 24, basal), the “Basal_Viability ATP SW480 IC50/EC50” value was 0.001 µM. Besides, the “Basal_Viability ATP HT-29 IC50/EC50” value with HT-29 (assay number 28, basal) stood at 0.01634 µM.
As for `CN1CCC(Nc2ncc3ncnc(Nc4ccc(F)c(Cl)c4)c3n2)CC1` [NCGC00161422-04], the “Basal_Viability ATP DLD-1 IC50/EC50” value in the assay with DLD-1 (assay number 23) was 2.292 µM. For the same compound, in the assay with RKO (assay number 29), the “Basal_Viability ATP RKO IC50/EC50” value stood at 3.167 µM. For the same compound, the “Basal_Viability ATP SNU-C1 IC50/EC50” value with SNU-C1 (assay number 30) is 11.9566 µM. For the same compound, the “GSK3b inh pretreated_Viability ATP HCT116 IC50/EC50” value in assay [1] (setting [2]) amounted to 3.384 µM. The “Hela CellCycMod PI 2N IC50/EC50” value in the assay on HeLa cells (assay number 14, 2N) is greater than 10 µM. For the same compound, the “Hela CellCycMod PI 4N IC50/EC50” value in the assay on HeLa cells (assay number 16, 4N) is greater than 10 µM. Further, in the assay with HeLa cells (assay number 17, MI), the “Hela CellCycMod PI MI IC50/EC50” value is greater than 10 µM. Further, the “Hela CellCycMod PI Cell Number IC50/EC50” value with HeLa cells (assay number 18, cell number) is on record as greater than 10 µM. In addition, the “Basal_Viability ATP HCT116 IC50/EC50” value in the assay with HCT116 (assay number 25, basal) is listed as greater than 20 µM. The “Basal_Viability ATP Colo 320 IC50/EC50” value in the assay on Colo320 (assay number 27) is given as 11.6683 µM. Also, the “Basal_Viability ATP SW480 IC50/EC50” value in the assay on SW480 (assay number 24) is recorded as 2.346 µM. Further, the “Basal_Viability ATP HT-29 IC50/EC50” value in the assay on HT-29 (assay number 28) is reported as 4.003 µM.
Turning to `Cl.O=C1[C@H]2CCCC[C@H]2C(=O)N1CCCCN1CCN(c2nsc3ccccc23)CC1` [NCGC00164567-02], in the assay on DLD-1 (assay number 23), the “Basal_Viability ATP DLD-1 IC50/EC50” value amounted to 8.238 µM. Besides, the “Basal_Viability ATP RKO IC50/EC50” value in the assay with RKO (assay number 29) is reported as 0.5459 µM. Besides, the “Basal_Viability ATP SNU-C1 IC50/EC50” value in the assay on SNU-C1 (assay number 30) is recorded as 9.3713 µM. In addition, in assay [1] (setting [2]), the “GSK3b inh pretreated_Viability ATP HCT116 IC50/EC50” value is listed as 1.6729 µM. Also, in the assay with HeLa cells (assay number 14, 2N), the “Hela CellCycMod PI 2N IC50/EC50” value is reported as greater than 10 µM. Moreover, the “Hela CellCycMod PI S Phase IC50/EC50” value with HeLa cells (assay number 15, S phase) is greater than 10 µM. The “Hela CellCycMod PI 4N IC50/EC50” value in the assay on HeLa cells (assay number 16, 4N) is greater than 10 µM. For the same compound, in the assay with HeLa cells (assay number 17, MI), the “Hela CellCycMod PI MI IC50/EC50” value is reported as greater than 10 µM. In addition, the “Hela CellCycMod PI Cell Number IC50/EC50” value with HeLa cells (assay number 18, cell number) was greater than 10 µM. Besides, the “Basal_Viability ATP HCT116 IC50/EC50” value with HCT116 (assay number 25, basal) is reported as 2.0649 µM. Besides, the “Basal_Viability ATP Colo 320 IC50/EC50” value in the assay on Colo320 (assay number 27) is on record as 13.2075 µM. Moreover, the “Basal_Viability ATP SW480 IC50/EC50” value in the assay with SW480 (assay number 24) turned out to be 5.9082 µM. Also, the “Basal_Viability ATP HT-29 IC50/EC50” value in the assay on HT-29 (assay number 28) is 2.0058 µM.
As to `CCN1/C(=C/C=C/c2sc3ccccc3[n+]2CC)Sc2ccccc21.[I-]` [NCGC00166288-02], the “IC50/EC50, Basal_Viability ATP DLD-1 (assay number 23)” value with DLD-1 (basal) is 0.0148 µM. For the same compound, the “IC50/EC50, Basal_Viability ATP RKO (assay number 29)” value in the assay with RKO (basal) was determined as 0.00898 µM. Moreover, the “IC50/EC50, Basal_Viability ATP SNU-C1 (assay number 30)” value with SNU-C1 (basal) stood at 0.01721 µM. Also, the “IC50/EC50, GSK3b inh pretreated_Viability ATP HCT116 (assay number 26)” value in assay [1] (GSK3b inh pretreated) stood at 0.00875 µM. Moreover, in the assay on HeLa cells (2N), the “IC50/EC50, Hela CellCycMod PI 2N (assay number 14)” value is 8.506 µM. Moreover, the “IC50/EC50, Hela CellCycMod PI 4N (assay number 16)” value with HeLa cells (4N) is on record as greater than 10 µM. Also, the “IC50/EC50, Hela CellCycMod PI Cell Number (assay number 18)” value in the assay with HeLa cells (Cell Number) came out at 0.03604 µM. Further, the “IC50/EC50, Hela CellCycMod PI MI (assay number 17)” value with HeLa cells (MI) turned out to be 4.476 µM. Moreover, in the assay on HeLa cells (S Phase), the “IC50/EC50, Hela CellCycMod PI S Phase (assay number 15)” value is greater than 10 µM. The “IC50/EC50, Basal_Viability ATP HCT116 (assay number 25)” value in the assay on HCT116 (basal) is 0.00957 µM. Besides, in the assay on Colo320 (basal), the “IC50/EC50, Basal_Viability ATP Colo 320 (assay number 27)” value is given as 0.562 µM. For the same compound, the “IC50/EC50, Basal_Viability ATP SW480 (assay number 24)” value in the assay with SW480 (basal) turned out to be 0.172 µM. In the assay on HT-29 (basal), the “IC50/EC50, Basal_Viability ATP HT-29 (assay number 28)” value is recorded as 0.00838 µM.
As for `O=C(c1cc(O)c(O)c(O)c1)c1ccc(O)c(O)c1O` [NCGC00249050-02], in the assay on DLD-1, the “Basal_Viability ATP DLD-1 IC50/EC50” value was 11.8874 µM. In addition, the “Basal_Viability ATP RKO IC50/EC50” value in the assay with RKO was found to be 0.1924 µM. For the same compound, the “Basal_Viability ATP SNU-C1 IC50/EC50” value in the assay with SNU-C1 was found to be 12.767 µM. Besides, in assay [1], the “GSK3b inh pretreated_Viability ATP HCT116 IC50/EC50” value amounted to 0.06911 µM. In addition, in the assay on HeLa cells, the “Hela CellCycMod PI 2N IC50/EC50” value is on record as greater than 10 µM, the “Hela CellCycMod PI 4N IC50/EC50” value was greater than 10 µM, the “Hela CellCycMod PI Cell Number IC50/EC50” value is greater than 10 µM and the “Hela CellCycMod PI MI IC50/EC50” value is greater than 10 µM. Moreover, the “Hela CellCycMod PI S Phase IC50/EC50” value in the assay on HeLa cells was greater than 10 µM. For the same compound, the “Basal_Viability ATP HCT116 IC50/EC50” value in the assay with HCT116 is reported as 16.3036 µM. In the assay with Colo320, the “Basal_Viability ATP Colo 320 IC50/EC50” value turned out to be 9.382 µM. In addition, the “Basal_Viability ATP SW480 IC50/EC50” value with SW480 came to 9.9516 µM. The “Basal_Viability ATP HT-29 IC50/EC50” value in the assay on HT-29 was determined as 9.4494 µM.
For `Cc1cc2nc3c(=O)[nH]c(=O)nc-3n(C[C@H](O)[C@H](O)[C@H](O)COP(=O)([O-])OP(=O)([O-])OC[C@H]3O[C@@H](n4cnc5c(N)ncnc54)[C@H](O)[C@H]3O)c2cc1C.O.[Na+].[Na+]` [NCGC00344578-01], in the assay with DLD-1 (assay number 23, basal), the “Basal_Viability ATP DLD-1 IC50/EC50” value is greater than 20 µM. In addition, the “Basal_Viability ATP RKO IC50/EC50” value with RKO (assay number 29, basal) is greater than 20 µM. For the same compound, in the assay with SNU-C1 (assay number 30, basal), the “Basal_Viability ATP SNU-C1 IC50/EC50” value is recorded as greater than 20 µM. Also, the “GSK3b inh pretreated_Viability ATP HCT116 IC50/EC50” value in assay [1] (setting [2]) is greater than 20 µM. Moreover, the “Basal_Viability ATP HCT116 IC50/EC50” value in the assay with HCT116 (assay number 25, basal) is recorded as greater than 20 µM. For the same compound, the “Basal_Viability ATP Colo 320 IC50/EC50” value in the assay with Colo320 (assay number 27, basal) is reported as greater than 20 µM. Besides, the “Basal_Viability ATP SW480 IC50/EC50” value in the assay with SW480 (assay number 24, basal) is greater than 20 µM. Besides, the “Basal_Viability ATP HT-29 IC50/EC50” value in the assay with HT-29 (assay number 28, basal) is greater than 20 µM.
